Patent publication US20260274814A1, “THIENYL COMPOUNDS FOR THE TREATMENT OF A CENTRAL NERVOUS SYSTEM DISEASE OR DISORDER” (Coreterra Therapeutics, Inc., priority 2023, published 2026)
Structures can show the parent of a compound that is named as a salt. Where two headings read alike, the source gives them in different places.

System: mice
Assay: Neuropharmacological Assay (SmartCube): automated behavioral signature of compound-treated mice compared with a database of reference drug classes
Assay type: in vivo
Conditions: for minimal effective dose: Mus musculus, ip; for minimal effective dose / MED (minimal effective dose) / MED: i.p., that dose is shown
Source text: Neurosci. 2011 Sep. 9; 5: 103 (doi: 10.3389/fnins.2011.00103) (“Roberds”). As reported in Roberds, because psychiatric diseases generally result from disorders of cell-cell communication or circuitry, intact systems are useful in detecting improvement in disease-relevant endpoints. These endpoints are typically behavioral in nature, often requiring human observation and interpretation. To facilitate testing of multiple compounds for behavioral effects relevant to psychiatric disease, PsychoGenics, Inc. (Tarrytown, NY, “PGI”) developed SmartCube™ an automated system in which behaviors of compound-treated mice are captured by digital video and analyzed with computer algorithms. (D. Brunner et al. Drug Discov. Today 2002, 7:S107-S112). PGI Analytical Systems uses data from SmartCube™ to compare the behavioral signature of a test compound to a database of behavioral signatures obtained using a large set of diverse reference compounds. (The composition of the database as well as validation of the method is further described in Roberds). In this way, the neuropharmacological effects of a test compound can be predicted by similarity to major classes of compounds, such as antipsychotics, anxiolytics and antidepressants.
The SmartCube™ system produces an activity signature indicating the probability that the activity of the test compound at the administered dose matches a given class of neuropharmacological agents. (See, e.g., Roberds, FIGS. 2 and 3). The test compound is simultaneously compared against multiple classes of agents; thus, a separate probability is generated for each behavioral effect measured (e.g., anxiolytic activity, analgesic activity, etc.). In table 2 below, these probabilities are reported for each behavioral effect measured as described in Table 1 below.
Provided compounds were dissolved in a mixture of Pharmasolve™ (N-methyl-2-pyrrolidone), polyethylene glycol and propylene glycol, and were injected i.p. 15 min. before the behavioral test. For each compound, injections were administered at 3 different doses. For each behavioral effect measured, results for the 3.0 mg/kg dose are presented. The potency of many of the compounds in the table was also determined in the SmartCube™ system. Test compounds were routinely examined at dose levels of 0.3, 1, 3 and 10 mg per kg (mpk), although the dose range was increased or decreased, if necessary, to obtain a full dose response curve. A compound's minimal effective dose (MED) is a measure of the compound's potency. The MED was defined as the dose (in mpk) having 45% or more total activity in SmartCube. If only one dose was tested, that dose is shown in the MED column of Table 2 even though the dose is not known to be the MED.

[1] = minimal effective dose: dose having 45% or more total activity in SmartCube, if only one dose tested, read-out: MED
[2] = SmartCube class probability, 3.0 mg/kg i.p., 15 min before test
[3] = dose having 45% or more total activity in SmartCube, if only one dose was tested, hydrochloride
[4] = probability that activity matches this class of agents, 3.0 mg/kg i.p., 15 min before test
[5] = probability that activity matches this class of agents, 3.0 mg/kg i.p., 15 min before test, hydrochloride, 3 mg/kg
[6] = SmartCube class probability, 3.0 mg/kg i.p., 15 min before test, hydrochloride, 3 mg/kg
[7] = SmartCube probability class, 3.0 mg/kg dose, i.p. 15 min before the behavioral test
[8] = SmartCube probability class, 3.0 mg/kg dose, i.p. 15 min before the behavioral test, hydrochloride, 3 mg/kg

NC1CCc2c(Cl)csc2C1 (stereo not drawn) [Compound 217, 3-chloro-4,5,6,7-tetrahydrobenzothiophen-6-amine hydrochloride]
minimal effective dose [1]: < 3 mg/kg
AD [2]: ND (^ <4%)
AG [2]: ND (^ <4%)
AN [2]: ND (^ <4%)
AP [2]: + (≥4%)
AX [2]: ++ (≥24%)
CE [2]: ND (^ <4%)
HL [2]: + (≥4%)
MS [2]: ND (^ <4%)
PS [2]: ++ (≥24%)
SH [2]: ND (^ <4%)
UK [2]: + (≥4%)

CNC1CCc2c(csc2F)C1 (single isomer, unassigned) [Compound 76, 1-fluoro-N-methyl-4,5,6,7-tetrahydro-2-benzothiophen-5-amine hydrochloride]
MED (minimal effective dose) [3]: 3 mpk
AD [4]: ND (^ <4%)
AG [4]: ND (^ <4%)
AN [4]: ND (^ <4%)
CE [4]: ND (^ <4%)
HL [4]: ND (^ <4%)
MS [4]: ND (^ <4%)
PS [4]: ND (^ <4%)
SH [4]: ND (^ <4%)
UK [4]: ND (^ <4%)
AP [5]: ++ (≥24%)
AX [5]: ++ (≥24%)

CNC1CCc2scc(C#N)c2C1 (single isomer, unassigned) [Compound 174, 5-(methylamino)-4,5,6,7-tetrahydrobenzothiophene-3-carbonitrile hydrochloride]
AD [2]: ND (^ <4%)
AG [2]: ND (^ <4%)
AN [2]: ND (^ <4%)
AP [2]: ND (^ <4%)
CE [2]: ND (^ <4%)
HL [2]: ND (^ <4%)
MS [2]: ND (^ <4%)
PS [2]: ND (^ <4%)
SH [2]: + (≥4%)
UK [2]: ND (^ <4%)
AX [6]: ND (^ <4%)
MED (minimal effective dose: dose having 45% or more total activity in SmartCube, if only one dose tested, hydrochloride): 1 mpk

CNC1CCc2sc(Cl)cc2C1 (single isomer, unassigned) [Compound 152, 2-chloro-N-methyl-4,5,6,7-tetrahydrobenzothiophen-5-amine hydrochloride]
AD [2]: ND (^ <4%)
AG [2]: ND (^ <4%)
AN [2]: ND (^ <4%)
AP [2]: ND (^ <4%)
AX [2]: ND (^ <4%)
CE [2]: ND (^ <4%)
HL [2]: ND (^ <4%)
MS [2]: ND (^ <4%)
PS [2]: ND (^ <4%)
SH [2]: ND (^ <4%)
UK [6]: ++ (≥24%)
MED (minimal effective dose: dose having 45% or more total activity in SmartCube, if only one dose tested): 3 mpk

CN(C)C1CCc2cscc2C1.Cl (single isomer, unassigned) [Compound 156, N,N-dimethyl-4,5,6,7-tetrahydro-2-benzothiophen-5-amine hydrochloride]
minimal effective dose [1]: 3 mg/kg
AD [2]: ND (^ <4%)
AG [2]: ND (^ <4%)
AN [2]: ND (^ <4%)
AP [2]: ND (^ <4%)
CE [2]: ND (^ <4%)
HL [2]: ND (^ <4%)
MS [2]: ND (^ <4%)
PS [2]: ND (^ <4%)
SH [2]: ND (^ <4%)
AX [6]: ++ (≥24%)
UK [6]: ++ (≥24%)

CNC1(C)CCc2cscc2C1 (single isomer, unassigned; enantiomer 2) [Compound 102, N, 5-dimethyl-6,7-dihydro-4H-2-benzothiophen-5-amine hydrochloride enantiomer 2]
MED (minimal effective dose) (dose having 45% or more total activity in SmartCube, if only one dose was tested): 1 mpk
AD [4]: ++++ (≥74%)
AG [4]: ND (^ <4%)
AN [4]: ND (^ <4%)
AP [4]: ND (^ <4%)
AX [4]: ND (^ <4%)
CE [4]: ND (^ <4%)
HL [4]: ND (^ <4%)
MS [4]: ND (^ <4%)
SH [4]: ND (^ <4%)
UK [4]: ND (^ <4%)
PS (probability that activity matches this class of agents, 3.0 mg/kg i.p., 15 min before test, 3 mg/kg): + (≥4%)

CNC1Cc2cc(C)sc2C1 (single isomer, unassigned) [Compound 319, N, 2-dimethyl-5,6-dihydro-4H-cyclopenta[b]thiophen-5-amine hydrochloride]
AD [7]: ND (^ <4%)
AG [7]: ND (^ <4%)
AN [7]: ND (^ <4%)
HL [7]: ND (^ <4%)
MS [7]: ND (^ <4%)
PS [7]: ND (^ <4%)
SH [7]: ND (^ <4%)
AP [8]: ND (^ <4%)
AX [8]: ++++ (≥74%)
CE [8]: + (≥4%)
UK [8]: ND (^ <4%)
MED (minimal effective dose: dose having 45% or more total activity in SmartCube, if only one dose was tested): 3 mpk

CCc1csc2c1CC(N)CC2 (stereo not drawn) [Compound 208, 3-ethyl-4,5,6,7-tetrahydrobenzothiophen-5-amine hydrochloride]
minimal effective dose [1]: > 3 mg/kg
AD [2]: ND (^ <4%)
AG [2]: ND (^ <4%)
AN [2]: ND (^ <4%)
AP [2]: ND (^ <4%)
AX [2]: ND (^ <4%)
CE [2]: ND (^ <4%)
HL [2]: ND (^ <4%)
MS [2]: ND (^ <4%)
PS [2]: ND (^ <4%)
SH [2]: ND (^ <4%)
UK [2]: + (≥4%)

NC1CCc2sccc2C1 (single isomer, unassigned) [Compound 212, 4,5,6,7-tetrahydrobenzothiophen-5-amine hydrochloride]
minimal effective dose [1]: 1 mg/kg
AG [2]: ND (^ <4%)
AN [2]: ND (^ <4%)
AP [2]: + (≥4%)
HL [2]: ND (^ <4%)
MS [2]: ND (^ <4%)
PS [2]: ND (^ <4%)
UK [2]: ND (^ <4%)
AD [6]: +++ (≥49%)
AX [6]: + (≥4%)
CE [6]: + (≥4%)
SH [6]: ND (^ <4%)

CCc1scc2c1CCC(NC)C2 (single isomer, unassigned) [Compound 113, 1-ethyl-N-methyl-4,5,6,7-tetrahydro-2-benzothiophen-5-amine hydrochloride]
MED (minimal effective dose) [3]: 0.3 mpk
AG [4]: ND (^ <4%)
AN [4]: ND (^ <4%)
AX [4]: ND (^ <4%)
CE [4]: ND (^ <4%)
HL [4]: ND (^ <4%)
MS [4]: ND (^ <4%)
PS [4]: ND (^ <4%)
SH [4]: ND (^ <4%)
UK [4]: ND (^ <4%)
AD [5]: + (≥4%)
AP [5]: ++++ (≥74%)

CC1(N)CCc2cscc2C1.Cl (single isomer, unassigned) [Compound 122, 5-methyl-6,7-dihydro-4H-2-benzothiophen-5-amine hydrochloride]
minimal effective dose (dose having 45% or more total activity in SmartCube, if only one dose was tested, read-out: MED (minimal effective dose)): 1 mg/kg
AG [4]: ND (^ <4%)
AN [4]: ND (^ <4%)
AP [4]: ND (^ <4%)
CE [4]: ND (^ <4%)
MS [4]: ND (^ <4%)
SH [4]: ND (^ <4%)
UK [4]: ND (^ <4%)
AD [5]: +++ (≥49%)
AX [5]: + (≥4%)
HL [5]: ND (^ <4%)
PS [5]: ND (^ <4%)

CNC1CCc2csc(F)c2C1 (single isomer, unassigned) [Compound 74, 3-fluoro-N-methyl-4,5,6,7-tetrahydro-2-benzothiophen-5-amine hydrochloride]
MED (minimal effective dose) [3]: 3 mpk
AG [4]: ND (^ <4%)
AN [4]: ND (^ <4%)
CE [4]: ND (^ <4%)
HL [4]: ND (^ <4%)
MS [4]: ND (^ <4%)
PS [4]: ND (^ <4%)
SH [4]: ND (^ <4%)
UK [4]: ND (^ <4%)
AD [5]: + (≥4%)
AP [5]: ++++ (≥74%)
AX [5]: ND (^ <4%)

CNC1CCCc2ccsc2C1.Cl (single isomer, unassigned) [Compound 26, N-methyl-5,6,7,8-tetrahydro-4H-cyclohepta[b]thiophen-7-amine hydrochloride]
MED (minimal effective dose) [3]: 3.0 mpk
AD [4]: ND (^ <4%)
AG [4]: ND (^ <4%)
AN [4]: ND (^ <4%)
AX [4]: ND (^ <4%)
HL [4]: ND (^ <4%)
MS [4]: ND (^ <4%)
PS [4]: ND (^ <4%)
AP [5]: ND (^ <4%)
CE [5]: + (≥4%)
SH [5]: + (≥4%)
UK [5]: ++ (≥24%)
